Assay results from US20230242530A1, “8-(AZETIDIN-1-YL)-[1,2,4]TRIAZOLO[1,5-A]PYRIDINYL COMPOUNDS, COMPOSITIONS AND METHODS OF USE THEREOF” (Genentech, Inc., priority 2016, published 2023).

Columns and labels:
[1] = biological target: T1, isolated recombinant JAK1 kinase domain (Homo sapiens, UniProt P23458); assay: JAK enzyme assay, JAK1 kinase domain (Caliper LabChip); type: biochemical; settings: 1.5 nM JAK1, ATP 25 μM, Morrison tight binding model
T1 construct: isolated recombinant JAK1 and JAK2 kinase domain
T1 sequence (P23458 875-1153 limits assumed): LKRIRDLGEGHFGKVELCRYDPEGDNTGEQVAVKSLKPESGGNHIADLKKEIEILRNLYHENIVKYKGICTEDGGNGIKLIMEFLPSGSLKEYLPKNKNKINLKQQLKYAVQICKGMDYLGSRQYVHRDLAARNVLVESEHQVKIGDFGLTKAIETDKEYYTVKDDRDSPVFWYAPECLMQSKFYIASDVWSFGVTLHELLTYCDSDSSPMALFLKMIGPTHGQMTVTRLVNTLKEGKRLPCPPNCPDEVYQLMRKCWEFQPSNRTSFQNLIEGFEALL
Method in brief: (§1)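 Ki values were obtained by Morrison tight-binding analysis with ATP-competitive correction, Ki=Ki,app/(1+[ATP]/Km,app). Phosphorylated versus total fluorescent JAK3-derived peptide was quantified on a Caliper LabChip. Kinase reactions with the isolated recombinant domains ran 30 min at 22 °C before EDTA quench (50 mM final).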

[2] = biological target: T2, isolated recombinant JAK2 kinase domain (Homo sapiens, UniProt O60674); assay: JAK enzyme assay, JAK2 kinase domain (Caliper LabChip); type: biochemical; settings: 0.2 nM JAK2, ATP 25 μM, Morrison tight binding model
T2 construct: isolated recombinant JAK1 and JAK2 kinase domain
T2 sequence (O60674 849-1124 limits assumed): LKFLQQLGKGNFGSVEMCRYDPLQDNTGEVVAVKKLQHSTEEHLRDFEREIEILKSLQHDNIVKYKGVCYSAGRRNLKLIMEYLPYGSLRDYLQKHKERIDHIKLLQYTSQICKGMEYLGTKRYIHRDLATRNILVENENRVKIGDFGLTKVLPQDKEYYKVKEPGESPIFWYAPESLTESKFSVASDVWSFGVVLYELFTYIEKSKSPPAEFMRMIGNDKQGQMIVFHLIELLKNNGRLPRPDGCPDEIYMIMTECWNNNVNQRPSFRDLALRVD
Method in brief: as §1

[3] = tested on: JAK1-dependent STAT6 phosphorylation downstream of IL-13 stimulation in BEAS-2B cells; assay: JAK1 pathway assay in cell lines: IL-13 p-STAT6 BEAS-2B; type: cell-based; settings: BEAS-2B human bronchial epithelial cells, 1 hr compound, IL-13 15 min, MSD readout
Method in brief: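 Phospho-STAT6 read by MSD electrochemiluminescence in lysates of BEAS-2B cells kept in complete growth medium. Cells were pretreated 1 hr at 37 °C with compound (0.2% DMSO final) and stimulated 15 min with IL-13 at its EC90; EC50 is the concentration halving signal versus DMSO.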

With Cc1ccccc1-c1cnn(C2(CC#N)CN(c3cccn4nc(Nc5cnn(CC(=O)N6CCN(C)CC6)c5)nc34)C2)c1 [Example 63] the Ki [1] was 0.2 nM, the Ki [2] was 0.2 nM and the EC50 [3] was 13 nM.

With CCc1cnn(C2(CC#N)CN(c3cccn4nc(Nc5ccc(C(=O)NCc6ccc(C)nc6)cc5)nc34)C2)c1 [Example 64, 4-[[8-[3-(cyanomethyl)-3-(4-ethylpyrazol-1-yl)azetidin-1-yl]-[1,2,4]triazolo[1,5-a]pyridin-2-yl]amino]-N-[(6-methyl-3-pyridyl)methyl]benzamide] the Ki [1] was 0.3 nM, the Ki [2] was 0.2 nM and the EC50 [3] was 15 nM.

CCc1cnn(C2(CC#N)CN(c3cccn4nc(Nc5ccc(C(=O)N6CC(C(=O)N7CCN(C)CC7)C6)cc5)nc34)C2)c1 [Example 65, 2-[3-(4-ethylpyrazol-1-yl)-1-[2-[4-[3-(4-methylpiperazine-1-carbonyl)azetidine-1-carbonyl]anilino]-[1,2,4]triazolo[1,5-a]pyridin-8-yl]azetidin-3-yl]acetonitrile] showed a Ki [1] of 0.5 nM, a Ki [2] of 1.3 nM and an EC50 [3] of 86 nM.

For CCc1cnn(C2(CC#N)CN(c3cccn4nc(Nc5ccc(C(=O)NCCN6CCOCC6)cc5)nc34)C2)c1 [Example 66, 4-[[8-[3-(cyanomethyl)-3-(4-ethylpyrazol-1-yl)azetidin-1-yl]-[1,2,4]triazolo[1,5-a]pyridin-2-yl]amino]-N-(2-morpholinoethyl)benzamide], the Ki [1] was 0.3 nM, the Ki [2] was 0.5 nM and the EC50 [3] was 31 nM.

Work on CCc1cnn(C2(CC#N)CN(c3cccn4nc(Nc5ccc(C(=O)NCCCN6CCOCC6)cc5)nc34)C2)c1 [Example 67, 4-[[8-[3-(cyanomethyl)-3-(4-ethylpyrazol-1-yl)azetidin-1-yl]-[1,2,4]triazolo[1,5-a]pyridin-2-yl]amino]-N-(3-morpholinopropyl)benzamide] yielded a Ki [1] of 0.5 nM, a Ki [2] of 1.1 nM and an EC50 [3] of 167 nM.

CCc1cnn(C2(CC#N)CN(c3cccn4nc(Nc5cnn(CC(=O)N6CCN(CCCC#N)CC6)c5)nc34)C2)c1 [Example 68, 4-[4-[2-[4-[[8-[3-(cyanomethyl)-3-(4-ethylpyrazol-1-yl)azetidin-1-yl]-[1,2,4]triazolo[1,5-a]pyridin-2-yl]amino]pyrazol-1-yl]acetyl]piperazin-1-yl]butanenitrile] was tested, and the Ki [1] was 0.3 nM, the Ki [2] was 0.5 nM and the EC50 [3] was 14 nM.

With N#CCC1(c2cccc(Cl)c2)CN(c2cccn3nc(Nc4cnn(CC(=O)N5CCN(C6COC6)CC5)c4)nc23)C1 [Example 69, 2-[3-(3-chlorophenyl)-1-[2-[[1-[2-[4-(oxetan-3-yl)piperazin-1-yl]-2-oxo-ethyl]pyrazol-4-yl]amino]-[1,2,4]triazolo[1,5-a]pyridin-8-yl]azetidin-3-yl]acetonitrile] the Ki [1] was 0.3 nM, the Ki [2] was 0.5 nM and the EC50 [3] was 21 nM.

CN1CCN(C2CCN(C(=O)Cn3cc(Nc4nc5c(N6CC(CC#N)(c7cccc(Cl)c7)C6)cccn5n4)cn3)CC2)CC1 [Example 70, 2-[3-(3-chlorophenyl)-1-[2-[[1-[2-[4-(4-methylpiperazin-1-yl)-1-piperidyl]-2-oxo-ethyl]pyrazol-4-yl]amino]-[1,2,4]triazolo[1,5-a]pyridin-8-yl]azetidin-3-yl]acetonitrile] was tested, and the Ki [1] was 0.2 nM, the Ki [2] was 0.3 nM and the EC50 [3] was 10 nM.

Work on CCc1cccc(C2(CC#N)CN(c3cccn4nc(Nc5cnn(CC(=O)N6CCN(C)CC6)c5)nc34)C2)c1 [Example 71, 2-[3-(3-ethylphenyl)-1-[2-[[1-[2-(4-methylpiperazin-1-yl)-2-oxo-ethyl]pyrazol-4-yl]amino]-[1,2,4]triazolo[1,5-a]pyridin-8-yl]azetidin-3-yl]acetonitrile] yielded a Ki [1] of 0.3 nM, a Ki [2] of 0.3 nM and an EC50 [3] of 26 nM.

N#CCC1(c2cccc(Cl)c2)CN(c2cccn3nc(Nc4cnn(CC(=O)N5CCC(N6CCOCC6)CC5)c4)nc23)C1 [Example 72, 2-[3-(3-chlorophenyl)-1-[2-[[1-[2-(4-morpholino-1-piperidyl)-2-oxo-ethyl]pyrazol-4-yl]amino]-[1,2,4]triazolo[1,5-a]pyridin-8-yl]azetidin-3-yl]acetonitrile] was tested, and the Ki [1] was 0.6 nM, the Ki [2] was 0.6 nM and the EC50 [3] was 24 nM.

Work on CCc1cnn(C2(CC#N)CN(c3cccn4nc(Nc5ccc(CC(=O)N6CCN(C)CC6)cc5)nc34)C2)c1 [Example 73, 2-[3-(4-ethylpyrazol-1-yl)-1-[2-[4-[2-(4-methylpiperazin-1-yl)-2-oxo-ethyl]anilino]-[1,2,4]triazolo[1,5-a]pyridin-8-yl]azetidin-3-yl]acetonitrile] yielded a Ki [1] of 0.7 nM, a Ki [2] of 0.3 nM and an EC50 [3] of 18 nM.

In the case of CCc1cnn(C2(CC#N)CN(c3cccn4nc(Nc5ccc(CC(=O)N6CCN(C)CC6)nc5)nc34)C2)c1 [Example 74], the Ki [1] is reported as 0.4 nM, the Ki [2] is reported as 1.8 nM and the EC50 [3] is reported as 20 nM.

Molecule CCc1cnn(C2(CC#N)CN(c3cccn4nc(Nc5cccc(C(=O)N6CCN(C)CC6)c5)nc34)C2)c1 [Example 75, 2-[3-(4-ethylpyrazol-1-yl)-1-[2-[3-(4-methylpiperazine-1-carbonyl)anilino]-[1,2,4]triazolo[1,5-a]pyridin-8-yl]azetidin-3-yl]acetonitrile] has a Ki [1] of 0.4 nM, a Ki [2] of 2 nM and an EC50 [3] of 26 nM.

Work on CN1CCN(C(=O)Cn2cc(Nc3nc4c(N5CC(CC#N)(CCc6ccccc6)C5)cccn4n3)cn2)CC1 [Example 76] yielded a Ki [1] of 0.3 nM, a Ki [2] of 0.9 nM and an EC50 [3] of 16 nM.

CN1CCN(C(=O)Cn2cc(Nc3nc4c(N5CC(CC#N)(n6cc(-c7ccccc7F)cn6)C5)cccn4n3)cn2)CC1 [Example 77, 2-[3-[4-(2-fluorophenyl)pyrazol-1-yl]-1-[2-[[1-[2-(4-methylpiperazin-1-yl)-2-oxo-ethyl]pyrazol-4-yl]amino]-[1,2,4]triazolo[1,5-a]pyridin-8-yl]azetidin-3-yl]acetonitrile] showed a Ki [1] of 0.2 nM, a Ki [2] of 0.6 nM and an EC50 [3] of 17 nM.

With CSc1cccc(C2(CC#N)CN(c3cccn4nc(Nc5cnn(CC(=O)N6CCN(C)CC6)c5)nc34)C2)c1 [Example 78] the Ki [1] was 0.3 nM, the Ki [2] was 0.9 nM and the EC50 [3] was 17 nM.

In the case of CSc1cc(C2(CC#N)CN(c3cccn4nc(Nc5cnn(CC(=O)N6CCN(C)CC6)c5)nc34)C2)ccc1F [Example 79, 2-[3-(4-fluoro-3-methylsulfanyl-phenyl)-1-[2-[[1-[2-(4-methylpiperazin-1-yl)-2-oxo-ethyl]pyrazol-4-yl]amino]-[1,2,4]triazolo[1,5-a]pyridin-8-yl]azetidin-3-yl]acetonitrile], the Ki [1] is reported as 0.3 nM, the Ki [2] is reported as 0.7 nM and the EC50 [3] is reported as 16 nM.

For CCN1CCN(C(=O)Cn2cc(Nc3nc4c(N5CC(CC#N)(c6cccc(SC)c6)C5)cccn4n3)cn2)CC1 [Example 80], the Ki [1] was 0.5 nM, the Ki [2] was 0.8 nM and the EC50 [3] was 51 nM.

COCCN1CCN(C(=O)Cn2cc(Nc3nc4c(N5CC(CC#N)(c6cccc(Cl)c6)C5)cccn4n3)cn2)CC1 [Example 81, 2-[3-(3-chlorophenyl)-1-[2-[[1-[2-[4-(2-methoxyethyl)piperazin-1-yl]-2-oxo-ethyl]pyrazol-4-yl]amino]-[1,2,4]triazolo[1,5-a]pyridin-8-yl]azetidin-3-yl]acetonitrile] showed a Ki [1] of 0.4 nM, a Ki [2] of 1 nM and an EC50 [3] of 27 nM.

N#CCC1(c2cccc(Cl)c2)CN(c2cccn3nc(Nc4cnn(CC(=O)N5CCN(CCN6CCOCC6)CC5)c4)nc23)C1 [Example 82, 2-[3-(3-chlorophenyl)-1-[2-[[1-[2-[4-(2-morpholinoethyl)piperazin-1-yl]-2-oxo-ethyl]pyrazol-4-yl]amino]-[1,2,4]triazolo[1,5-a]pyridin-8-yl]azetidin-3-yl]acetonitrile] showed a Ki [1] of 0.2 nM, a Ki [2] of 0.2 nM and an EC50 [3] of 22 nM.

CN1CCN(C(=O)Cn2cc(Nc3nc4c(N5CC(CC#N)(c6ccc(F)c(Cl)c6)C5)cccn4n3)cn2)CC1 [Example 83, 2-[3-(3-chloro-4-fluoro-phenyl)-1-[2-[[1-[2-(4-methylpiperazin-1-yl)-2-oxo-ethyl]pyrazol-4-yl]amino]-[1,2,4]triazolo[1,5-a]pyridin-8-yl]azetidin-3-yl]acetonitrile] gave a Ki [1] of 0.2 nM, a Ki [2] of 0.2 nM and an EC50 [3] of 14 nM.

Work on CCc1cnn(C2(CC#N)CN(c3cccn4nc(Nc5ccc(C(=O)N(C)CC6CCN(C)CC6)cc5)nc34)C2)c1 [Example 84, 4-[[8-[3-(cyanomethyl)-3-(4-ethylpyrazol-1-yl)azetidin-1-yl]-[1,2,4]triazolo[1,5-a]pyridin-2-yl]amino]-N-methyl-N-[(l-methyl-4-piperidyl)methyl]benzamide] yielded a Ki [1] of 0.3 nM, a Ki [2] of 0.3 nM and an EC50 [3] of 16 nM.

With CCc1cnn(C2(CC#N)CN(c3cccn4nc(Nc5ccc(C(=O)N6CC7(CCN(C)CC7)C6)cc5)nc34)C2)c1 [Example 85, 2-[3-(4-ethylpyrazol-1-yl)-1-[2-[4-(7-methyl-2,7-diazaspiro[3.5]nonane-2-carbonyl)anilino]-[1,2,4]triazolo[1,5-a]pyridin-8-yl]azetidin-3-yl]acetonitrile] the Ki [1] was 1.1 nM, the Ki [2] was 9.3 nM and the EC50 [3] was 197 nM.

CCc1cnn(C2(CC#N)CN(c3cccn4nc(Nc5ccc(C(=O)N6CC7(CCN(C8COC8)CC7)C6)cc5)nc34)C2)c1 [Example 86, 2-[3-(4-ethylpyrazol-1-yl)-1-[2-[4-[7-(oxetan-3-yl)-2,7-diazaspiro[3.5]nonane-2-carbonyl]anilino]-[1,2,4]triazolo[1,5-a]pyridin-8-yl]azetidin-3-yl]acetonitrile] was tested, and the Ki [1] was 0.2 nM, the Ki [2] was 0.2 nM and the EC50 [3] was 11 nM.
